# Read-outs that look alike come from different tables or passages of the source.
# Target: T1, MRGPRX4 (Homo sapiens, UniProt Q96LA9)
# T1 construct: expressed in transfected cells; host or cells: HEK293T
# Assay: IP1 accumulation HTRF assay, MRGPRX4
# Assay type: cell-based
# Set-up: key to IP1 Basal / IP1 accumulation with YM (Figure 1c) / response to agonist, MRGPRX4 / IP1 accumulation: % IP1: unstimulated mock-transfected = 0%, fully stimulated MRGPRX4 = 100%
# Conditions: for Emax: HEK-293T
# T1 sequence (Q96LA9 whole entry): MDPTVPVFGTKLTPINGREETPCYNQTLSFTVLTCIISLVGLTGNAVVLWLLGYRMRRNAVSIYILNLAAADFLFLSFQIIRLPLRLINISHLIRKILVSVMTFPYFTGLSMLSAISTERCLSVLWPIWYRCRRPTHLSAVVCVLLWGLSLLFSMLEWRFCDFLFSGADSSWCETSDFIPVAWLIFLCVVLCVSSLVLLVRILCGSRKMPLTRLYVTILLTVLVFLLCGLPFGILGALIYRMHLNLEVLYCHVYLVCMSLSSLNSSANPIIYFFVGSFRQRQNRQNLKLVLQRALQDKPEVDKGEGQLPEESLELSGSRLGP
smiles,measurement,setting,value
"C[C@H](CCC(=O)NCCS(=O)(=O)O)[C@H]1CC[C@H]2[C@@H]3CC[C@@H]4C[C@H](O)CC[C@]4(C)[C@H]3C[C@H](O)[C@]12C [TDCA, Taurodeoxycholic acid]",activation at 100 µM,"2 h, log [agonist] (M) -4, MRGX4-transfected, individual replicates, read-out: IP1 accumulation, dose-response (Figure 1a)",48.8%
same,activation at 33.333 µM,"2 h, log [agonist] (M) -4.47712, MRGX4-transfected, individual replicates, read-out: IP1 accumulation, dose-response (Figure 1a)",32.5%
same,activation at 11.111 µM,"2 h, log [agonist] (M) -4.95424, MRGX4-transfected, individual replicates, read-out: IP1 accumulation, dose-response (Figure 1a)",22.8%
same,activation at 3.7037 µM,"2 h, log [agonist] (M) -5.43136, MRGX4-transfected, individual replicates, read-out: IP1 accumulation, dose-response (Figure 1a)",12.8%
same,activation at 1.2346 µM,"2 h, log [agonist] (M) -5.90849, MRGX4-transfected, individual replicates, read-out: IP1 accumulation, dose-response (Figure 1a)",12.2%
same,activation at 0.4115 µM,"2 h, log [agonist] (M) -6.38561, MRGX4-transfected, individual replicates, read-out: IP1 accumulation, dose-response (Figure 1a)",12.6%
same,activation at 0.13717 µM,"2 h, log [agonist] (M) -6.86273, MRGX4-transfected, individual replicates, read-out: IP1 accumulation, dose-response (Figure 1a)",10.1%
same,"response to agonist, MRGPRX4","Figure 4c-f, agonist 100µM, MRGPRX4 alone (reference = 100)",100
same,Emax,"MRGPRX4 (Fig. 1A), HEK293T, normalized to 100 μM nateglinide, read-out: IP1 Emax",84.2%
same,Emax,"MRGPRX4 (Fig. 1A), HEK293T, normalized to 100 μM nateglinide, read-out: IP1 span",69.6%
same,IP1 Basal,"MRGPRX4 (Fig. 1A), HEK293T, normalized to 100 μM nateglinide",14.54
same,EC50,"MRGPRX4 (Fig. 1A), HEK293T, normalized to 100 μM nateglinide, read-out: IP1 EC50",53.2 µM
